Series [1] in a line: Potassium permanganate oxidation study. The format is physicochemical. To be noted: 1 hour post-treatment with potassium permanganate, room temperature, radio-HPLC. From the text:
Reagents and Conditions: i) KMnO4, Na2CO3, H2O, rt.

The subject of series [2] is human melanoma (A375), prostate (PC3-M) and colon (HCT116) cancer cell lines. The experiment in a line: In vitro 18F-D4-choline uptake in cancer cell lines. It counts as cell-based. To be noted: the three cell lines over 30 min. As for the experimental part: Uptake was measured in vehicle-treated (closed symbols) and hemicholinium-3-treated cells (5 mM; open symbols). Mean values+SEM are shown (n=3). Insert: representative western blot of choline kinase-α expression in the three cell lines. Actin was used as a loading control. Abbreviations: CKα, choline kinase alpha.
Cells (5×10^5) were plated into 6-well plates the night prior to analysis. On the day of the experiment, fresh growth medium, containing 40 μCi ^18F-D4-choline, was added to individual wells. Cell uptake was measured following incubation at 37° C. in a humidified atmosphere of 5% CO2 for 60 min. Plates were subsequently placed on ice, washed 3 times with ice-cold PBS and lysed in RIPA buffer (Thermo Fisher Scientific Inc., Rockford, Ill., USA; 1 mL, 10 min). […] Aliquots were snap-frozen and used for protein determination following radioactive decay using a BCA 96-well plate assay (Thermo Fisher Scientific Inc., Rockford, Ill., USA). Data were expressed as percent of total radioactivity per mg protein. For hemicholinium-3 treatment (5 mM; Sigma-Aldrich), cells were incubated with the compound 30 min prior to addition of radioactivity and for the duration of the uptake time course. […]

The test system of another series is HCT116 tumors. On the set-up: AUC: unit not given beside the values. The method, then:
(§1) Dynamic ^11C-choline, ^11C-D4-choline and ^18F-D4-choline imaging scans were carried out on a dedicated small animal PET scanner (Siemens Inveon PET module, Siemens Medical Solutions USA, Inc., Malvem, Pa., USA) following a bolus i.v. injection in tumor-bearing mice of either ˜3.7 MBq for ^18F studies, or ˜18.5 MBq for ^11C. Dynamic scans were acquired in list mode format over 60 min. The acquired data were then sorted into 0.5 mm sinogram bins and 19 time frames for image reconstruction (4×15 s, 4×60 s, and 11×300 s), which was done by filtered back projection. For input function analysis, data were sorted into 25 time frames for image reconstruction (8×5 s, 1×20 s, 4×40 s, 1×80 s, and 11×300 s). The Siemens Inveon Research Workplace software was used for visualization of radiotracer uptake in the tumor; 30 to 60 min cumulative images of the dynamic data were employed to define 3-dimensional (3D) regions of interest (ROIs). Arterial input function was estimated as follows: a single voxel 3D ROI was manually drawn in the center of the heart cavity using 2 to 5 min cumulative images. Care was taken to minimize ROI overlap with the myocardium. The count densities were averaged for all ROIs at each time point to obtain a time versus radioactivity curve (TAC). Tumor TACs were normalized to injected dose, measured by a VDC-304 dose calibrator (Veenstra Instruments, Joure, The Netherlands), and expressed as percentage injected dose per mL tissue. The area under the TAC, calculated as the integral of % ID/mL from 0-60 min, and the normalized uptake of radiotracer at 60 min (% ID/mL60) were also used for comparisons.
(§2) A 2-tissue irreversible compartmental model was employed to fit the TACs, as has been previously established for ^11C-choline (Kenny L M, Contractor K B, Hinz R, et al. Reproducibility of [11C]choline-positron emission tomography and effect of trastuzumab. Clin Cancer Res. Aug. 15 2010; 16(16):4236-4245; and Sutinen E, Nurmi M, Roivainen A, et al. Kinetics of [(11)C]choline uptake in prostate cancer: a PET study. Eur J Nucl Med Mol. Imaging. March 2004; 31(3):317-324). An estimate of the whole blood TAC (wbTAC(t)) was derived from the PET image itself, as described above. […] Therefore it was fitted with a sum of 3 exponentials from the peak on and the fitted function was used as input function in the kinetic modeling (after metabolite correction, see below). […] The pf values were fitted to a sum of two exponentials with the constraint pf(t=0)=1 to obtain the function pf(t). The parent whole blood TAC wbTACPAR(t) was then computed by multiplying wbTAC(t) and pf(t) and used as input function to estimate the parameters K1 (mL/cm^3/min), k2 (1/min), k3 (1/min) and Vb (unitless). The steady state net irreversible uptake rate constant Ki (mL/cm^3/min) was calculated from the estimated microparameters as K1k3/(k2+k3).

In series [3] the test system is malignant melanoma A375 tumors. Details: AUC: unit not given beside the values. As for the experimental part:
as §1, §2

Where [4] appears, read: HCT116 tumors, two-tissue irreversible model, n=3.
Where [5] appears, read: HCT116 tumors, 2-tissue irreversible model.
Where [6] appears, read: A375 tumors, 2-tissue irreversible model.

We go through one compound from US20130183239A1, “ISOTOPIC CARBON CHOLINE ANALOGS” (IMPERIAL COLLEGE, priority 2010, published 2013).

Turning to `[2H]C([2H])(O)C([2H])([2H])[N+](C)(C)C[18F]` [[^18F]D4-FCH, [^18F]fluoromethyl-[1,2-^2H4]-choline], the “parent compound still present” value in series [1] was about 80%. Moreover, the “in vitro uptake of 18F-D4-choline” value in series [2] is “similar”. The “tumor tracer kinetics between 30 and 60 min” value in the series with HCT116 tumors (HCT116 tumors, dynamic PET) is recorded as “Slow wash-out of activity”. Further, in the series with HCT116 tumors (setting [4]), the “decrease in Ki compared to 11C-D4-choline” value worked out at 49.2% and the “decrease in k3 compared to 11C-D4-choline” value is 75.2%. For the same compound, in the series on HCT116 tumors (setting [5]), the “K1′” value came to 0.142 ± 0.027, the Ki is 0.008 ± 0.001 mL/cm^3/min and the k3 came out at 0.039 ± 0.003 min⁻¹. Further, in the series with HCT116 tumors (mouse, in vivo), the AUC turned out to be 114.5 ± 7.0, the NUV60 was 1.81 ± 0.11 % ID/mL and the “tumor radiotracer uptake by PET” value is on record as “no higher”. Besides, in series [3] (setting [6]), the “K1′” value is on record as 0.111 ± 0.021, the Ki was determined as 0.006 ± 0.002 mL/cm^3/min and the k3 worked out at 0.030 ± 0.008 min⁻¹. In series [3] (mouse, in vivo), this compound returned an AUC of 107.3 ± 7.7 and an NUV60 of 1.71 ± 0.14 % ID/mL.
